According to US20220135591A1, “HETEROCYCLIC COMPOUNDS AS INHIBITORS OF MONOACYLGLYCEROL LIPASE (MAGL)” (Hoffmann-La Roche Inc., priority 2019, published 2022):

target: T1, MAGL (recombinant wild-type) (Homo sapiens, UniProt Q99685); experiment: 4-NPA assay: MAGL inhibitory activity by hydrolysis of 4-nitrophenylacetate, absorbance at 405 nm; type: biochemical; details: 4-NPA assay (values without footnote [b])
T1 sequence (Q99685 1-303): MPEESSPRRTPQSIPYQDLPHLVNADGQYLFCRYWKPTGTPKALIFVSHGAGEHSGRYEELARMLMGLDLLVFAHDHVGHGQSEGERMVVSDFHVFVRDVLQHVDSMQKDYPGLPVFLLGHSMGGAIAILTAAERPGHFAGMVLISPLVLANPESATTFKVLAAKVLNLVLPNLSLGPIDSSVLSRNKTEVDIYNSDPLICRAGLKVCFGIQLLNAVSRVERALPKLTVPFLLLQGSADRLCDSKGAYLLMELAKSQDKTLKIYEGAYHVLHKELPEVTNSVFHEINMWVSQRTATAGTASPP
Method in brief: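 Final assay: 1 nM MAGL and 300 μM 4-nitrophenylacetate in 50 mM Tris, 1 mM EDTA, at RT. Compounds (25 μM–1.7 nM, 3-fold steps) were preincubated 15 min with enzyme. A405 was read 5 min after substrate addition and again after 80 min; activity was taken as the difference between reads.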

Row | SMILES | IC50
1 | Cc1ccc2oc(N3CCN(C(=O)c4cnc(N5CCC6(C5)CC6(F)F)c(F)c4)CC3)nc2n1 (centres unmarked) [Example 228, (6-(1,1-difluoro-5-azaspiro[2.4]heptan-5-yl)-5-fluoropyridin-3-yl)(4-(5-methyloxazolo[4,5-b]pyridin-2-yl)piperazin-1-yl)methanone] | 152 nM
2 | CC(OC1CN(c2ncc(C(=O)N3CCN(c4nc5nc(Cl)ccc5o4)CC3)cc2F)C1)C(F)(F)F (centres unmarked) [Example 229, (4-(5-chlorooxazolo[4,5-b]pyridin-2-yl)piperazin-1-yl)(5-fluoro-6-(3-((1,1,1-trifluoropropan-2-yl)oxy)azetidin-1-yl)pyridin-3-yl)methanone] | 35 nM
3 | CC(C)(C)Cc1nc(-c2ccc(C(=O)N3CCN(c4nc5nc(C(F)(F)F)ccc5o4)CC3)cc2)no1 [Example 261, (4-(5-neopentyl-1,2,4-oxadiazol-3-yl)phenyl)(4-(5-(trifluoromethyl)oxazolo[4,5-b]pyridin-2-yl)piperazin-1-yl)methanone] | 40 nM
4 | CC(C)(F)Cc1nc(-c2ccc(C(=O)N3CCN(c4nc5nc(Cl)ccc5o4)CC3)cc2)no1 [Example 264, [4-(5-chlorooxazolo[4,5-b]pyridin-2-yl)piperazin-1-yl]-[4-[5-(2-fluoro-2-methyl-propyl)-1,2,4-oxadiazol-3-yl]phenyl]methanone] | 59 nM
5 | CC(C)=Cc1nc(-c2ccc(C(=O)N3CCN(c4nc5nc(Cl)ccc5o4)CC3)cc2)no1 [Example 266, [4-(5-chlorooxazolo[4,5-b]pyridin-2-yl)piperazin-1-yl]-[4-[5-(2-methylprop-1-enyl)-1,2,4-oxadiazol-3-yl]phenyl]methanone] | 101 nM

Second part, the compound after the results:

Row | IC50 | SMILES
6 | 56 nM | O=C(c1cnc(N2CCC3(C2)CC3(F)F)c(F)c1)N1CCN(c2nc3nc(Cl)ccc3o2)CC1 (centres unmarked) [Example 230, (4-(5-chlorooxazolo[4,5-b]pyridin-2-yl)piperazin-1-yl)(6-(1,1-difluoro-5-azaspiro[2.4]heptan-5-yl)-5-fluoropyridin-3-yl)methanone]
7 | 301 nM | CC(C)(C)Cc1nc(-c2ccc(C(=O)N3CCN(c4nc5nc(C#N)ccc5o4)CC3)cc2)no1 [Example 260, 2-(4-(4-(5-neopentyl-1,2,4-oxadiazol-3-yl)benzoyl)piperazin-1-yl)oxazolo[4,5-b]pyridine-5-carbonitrile]
8 | 65 nM | CC(F)(F)Cc1nc(-c2ccc(C(=O)N3CCN(c4nc5nc(Cl)ccc5o4)CC3)cc2)no1 [Example 262, [4-(5-chlorooxazolo[4,5-b]pyridin-2-yl)piperazin-1-yl]-[4-[5-(2,2-difluoropropyl)-1,2,4-oxadiazol-3-yl]phenyl]methanone]
9 | 181 nM | CCCCc1nc2ccc(C(=O)N3CCN(c4nc5nc(C)ccc5o4)CC3)cc2o1 [Example 263, (2-butyl-1,3-benzoxazol-6-yl)-[4-(5-methyloxazolo[4,5-b]pyridin-2-yl)piperazin-1-yl]methanone]
10 | 30 nM | C=C(C)Cc1nc(-c2ccc(C(=O)N3CCN(c4nc5nc(Cl)ccc5o4)CC3)cc2)no1 [Example 265, [4-(5-chlorooxazolo[4,5-b]pyridin-2-yl)piperazin-1-yl]-[4-[5-(2-methylallyl)-1,2,4-oxadiazol-3-yl]phenyl]methanone]
11 | 2420 nM | Cc1ccc2oc(N3CCN(C(=O)N4CC5(C4)CN(S(=O)(=O)c4cccc(Cl)c4)C5)CC3)nc2n1 [Example 305, [2-(3-chlorophenyl)sulfonyl-2,6-diazaspiro[3.3]heptan-6-yl]-[4-(5-methyloxazolo[4,5-b]pyridin-2-yl)piperazin-1-yl]methanone]
